Measurements from patent publication US7387880B2, “Method for monitoring resting and activated platelets in unfixed blood samples” (PPD Biomarker Discovery Sciences, LLC, priority 2000, dated 2008).

Experiments:
[1] = test system: CD62P on platelets; experiment: Platelet stimulation, CD62P expression by MLSC; assay type: cell-based, human
Procedure: Platelet stimulation. Thrombin stimulation was carried out on either washed platelets or 1:10 diluted whole blood in the presence of the fibrinogen cascade inhibitor peptide glycine-proline-arginine-proline (GPRP, 2 mM final concentration). Thrombin (5 U/ml) was added to 10 μl of sample in 75 μl Tyrode's buffer containing the GPRP (final total volume of 100 μl). Because the CTAD tubes contain reversible inhibitors of platelet activation, it was initially determined that a 10-fold dilution of the whole blood was sufficient to reduce the inhibitors below effective concentration and permit stimulation. […] Next, the reaction was incubated in a 37° C. water bath for 5 or 10 minutes and subsequently diluted to 1000 μl […] with Tyrode's buffer supplemented with 1.5 mM theophylline and 0.37 mM adenosine (final concentration). […]
Staining for MLSC. […] Twenty-one microliters of diluted sample was loaded into Flex32 capillary array and analyzed by Surroscan MLSC. […] Images were converted to flow cytometry standard (fcs) format with in-house software and analyzed with FlowJo™ cytometry analysis software (Tree Star, Inc., San Carlos, Calif.). Fluorescence intensities are compensated for spectral overlap of the dyes. […]

[2] = test system: CD62P on platelets; experiment: CD62P activation marker on platelets in unfixed whole blood drawn into EDTA or CTAD tubes, MLSC; assay type: cell-based, human; settings: for Mean Intensity CD62P: mean relative intensity, entire platelet population
Procedure: (§1) Staining for MLSC. For whole blood platelet stains, 10 μl of whole blood was diluted into 990 μl of Tyrode's buffer supplemented with 1.5 mM theophylline and 0.37 mM adenosine for a final dilution of 1:100. Twenty microliters of diluted whole blood, thrombin-stimulated samples, or control samples were added to 96 well micro-titer plates containing 5 μl of the appropriate reagent cocktail. The cells were incubated in the dark at room temperature for 20 minutes. At the end of the incubation, 50 μl of modified PBS/BSA buffer supplemented with theophylline (1.5 mM)/adenosine (0.37 mM) (to prevent activation), and Zwittergent (50 mM) was added to all the wells and mixed thoroughly. Twenty-one microliters of diluted sample was loaded into Flex32 capillary array and analyzed by Surroscan MLSC. The assays are performed in homogeneous mode, without removal of unbound reagent. After all dilutions, the fluorescent platelet counts per capillary are about 1,000-2,000, comfortably in the range of 10 to 12,000 that is appropriate for the cytometry. This platelet count level provides appropriate counting statistics and avoids coincident events. Images were converted to flow cytometry standard (fcs) format with in-house software and analyzed with FlowJo™ cytometry analysis software (Tree Star, Inc., San Carlos, Calif.). Fluorescence intensities are compensated for spectral overlap of the dyes.
(§2) Previous research has shown that addition of platelet inhibitors to the anti-coagulant greatly reduces the activation state of human platelets prior to testing. Kuhne et al., Am. J. Hematol. 50:40-5 (1995); Mody et al., Transfus.Med. 9:147-54 (1999). […] Blood was obtained from a volunteer (set of 5 volunteers) and processed within 4 hours. This was done without fixation in order to maintain epitope integrity and allow for further activation studies. The samples were incubated with antibodies against platelet surface activation markers CD62P and CD63, as well as antibodies against GPIIIA, an antigen present on all platelets. All platelets were identified with GPIIIa (Cy5.5). The sample was then analyzed using MLSC. Gates for the Cy5-CD62P and Cy5-CD63 positive events were drawn based upon MOPC-21 control antibody staining.

[3] = test system: platelet factor 4 (PF4); experiment: Platelet factor 4 in plasma by chemiluminescent ELISA; parameters: species or system human
Procedure: Platelet Factor 4 was measured by chemiluminescent using ELISA. Antibodies were obtained from U.S. Biologicals (Swampscott, Mass.) and Affinity Biologicals Enzyme Research Lab. (Southbend, Ind.), recombinant standard from Chemicon (Temecula, Calif.). Briefly, Corning black opaque 96 well microtiter plates were coated with rabbit polyclonal anti-PF4 (human) overnight at 4° C. Plates were washed and samples or standards were added to the wells and allowed to incubate at room temperature. After washing, biotinylated polyclonal sheep anti-PF4 (human) was added followed by washing and the addition of avidin-alkaline Phosphatase. Plates were washed and the CDP-Star R (Tropix, Bedford, Mass.)) substrate added, allowed to develop and read on the Wallac Victor plate reader. The assay sensitivity of the assay is 20 pg/ml.
PF4 expression was determined by ELISA (sensitivity of 20 pg/ml).

[4] = test system: platelets; experiment: Total platelet count in EDTA and CTAD tubes, MLSC; assay type: cell-based, human; settings: in the tubes
Procedure: as §1, with “After all dilutions, the fluorescent platelet counts per capillary are about 1,000-2,000, comfortably in the range of 10 to 12,000 that is appropriate for the cytometry. This platelet count level provides appropriate counting statistics and avoids coincident events.” left out
(§3) Previous research has shown that addition of platelet inhibitors to the anti-coagulant greatly reduces the activation state of human platelets prior to testing. […] The sample was then analyzed using MLSC. […]

[5] = test system: platelets; experiment: Pan platelet surface antigen expression (CD9, GPIIIA, GPIIB), EDTA versus CTAD samples, MLSC; assay type: cell-based, human
Procedure: as §1, with “After all dilutions, the fluorescent platelet counts per capillary are about 1,000-2,000, comfortably in the range of 10 to 12,000 that is appropriate for the cytometry. This platelet count level provides appropriate counting statistics and avoids coincident events.” left out
as §3

[6] = test system: CD63 on platelets; experiment: CD63 activation marker on platelets in unfixed whole blood drawn into EDTA or CTAD tubes, MLSC; assay type: cell-based, human; settings: for Mean Intensity CD63: mean relative intensity, entire platelet population
Procedure: as §1, §2

[7] = test system: CD62P on platelets; settings: thrombin; expected value; cited from earlier work
[8] = test system: CD63 on platelets; experiment: Platelet stimulation, CD63 expression by MLSC; assay type: cell-based, human
Procedure: Platelet stimulation. Thrombin stimulation was carried out on either washed platelets or 1:10 diluted whole blood in the presence of the fibrinogen cascade inhibitor peptide glycine-proline-arginine-proline (GPRP, 2 mM final concentration). Thrombin (5 U/ml) was added to 10 μl of sample in 75 μl Tyrode's buffer containing the GPRP (final total volume of 100 μl). Because the CTAD tubes contain reversible inhibitors of platelet activation, it was initially determined that a 10-fold dilution of the whole blood was sufficient to reduce the inhibitors below effective concentration and permit stimulation. […] Next, the reaction was incubated in a 37° C. water bath for 5 or 10 minutes and subsequently diluted to 1000 μl […] with Tyrode's buffer supplemented with 1.5 mM theophylline and 0.37 mM adenosine (final concentration). In order to stop the stimulation and prevent non-specific activation of the control and test samples caused by the handling and staining techniques, theophylline and adenosine were added to the samples. A control sample lacking only the thrombin was run in parallel.
Staining for MLSC. For whole blood platelet stains, 10 μl of whole blood was diluted into 990 μl of Tyrode's buffer supplemented with 1.5 mM theophylline and 0.37 mM adenosine for a final dilution of 1:100. Twenty microliters of diluted whole blood, thrombin-stimulated samples, or control samples were added to 96 well micro-titer plates containing 5 μl of the appropriate reagent cocktail. The cells were incubated in the dark at room temperature for 20 minutes. […] Twenty-one microliters of diluted sample was loaded into Flex32 capillary array and analyzed by Surroscan MLSC. […] Images were converted to flow cytometry standard (fcs) format with in-house software and analyzed with FlowJo™ cytometry analysis software (Tree Star, Inc., San Carlos, Calif.). Fluorescence intensities are compensated for spectral overlap of the dyes. […]

[9] = test system: CD63 on platelets; settings: thrombin; expected value; cited from earlier work
[10] = 24 hr from draw, average of 4 measurements
[11] = 48 hr from draw, average of 5 subjects
[12] = thrombin 5 U/ml, 5 minute activation, whole blood 1:10 with GPRP, average of 19 to 22 subjects

Q: With `Nc1ncnc2c1ncn2[C@@H]1O[C@H](COP(=O)(O)OP(=O)(O)O)[C@@H](O)[C@H]1O` [ADP, adenosine diphosphate] as the compound, how does the “platelets expressing CD62P” value ([1]; 30-minute stimulation with ADP) read?
A: greater than 60%

Q: With `O=C(O)CN(CCN(CC(=O)O)CC(=O)O)CC(=O)O` [EDTA, Ethylene-diamino-tetra-acetic acid] as the compound, how does the “% Positive CD62P” value [2, 10] read?
A: 49 ± 20 %

Q: And the “Mean Intensity CD62P” value ([2]; 24 hr from draw)?
A: 910 ± 130

Q: What about the “% Positive CD62P” value [2, 11] of the same compound?
A: 41 ± 4.8 %

Q: And the “Mean Intensity CD62P” value ([2]; 48 hr from draw)?
A: 900 ± 60

Q: And the “Mean Intensity CD62P” value ([2]; <4 hr from draw)?
A: 1110 ± 230

Q: And the “% Positive CD62P” value ([2]; <4 hr from draw, platelets identified with GPIIIA, average of 5 subjects)?
A: 37 ± 17 %

Q: And the “range of platelet activation levels observed” value ([2]; EDTA samples, all time points)?
A: 8 to 50%

Q: What about the “platelets positive for CD62P” value ([2]; matched samples analyzed over 48 hours) of the same compound?
A: 40-50%

Q: And the “PF4 release, times greater in EDTA than in CTAD samples” value ([3]; EDTA relative to CTAD, p<0.05)?
A: 5 times

Q: And the PF4 in plasma ([3]; average of 5 individuals, matched EDTA and CTAD draws)?
A: 627 ± 449 pg/mL

Q: And the “change in total platelet count from 4 to 48 hours” value [4]?
A: small but significant decrease

Q: And the “mean fluorescence intensity of GPIIB, lower in EDTA compared to CTAD” value ([5]; EDTA relative to CTAD)?
A: about 40%

Q: And the “differences in expression of pan surface antigens CD9 or GPIIIA on platelets” value ([5]; between EDTA and CTAD samples)?
A: no observable differences

Q: And the “% Positive CD63” value [6, 10]?
A: 37 ± 22%

Q: What about the “Mean Intensity CD63” value ([6]; 24 hr from draw) of the same compound?
A: 690 ± 77

Q: And the “% Positive CD63” value [6, 11]?
A: 15 ± 7.0 %

Q: What about the “Mean Intensity CD63” value ([6]; 48 hr from draw) of the same compound?
A: 680 ± 42

Q: What about the “% Positive CD63” value ([6]; <4 hr from draw, average of 5 subjects) of the same compound?
A: 22 ± 20 %

Q: And the “Mean Intensity CD63” value ([6]; <4 hr from draw)?
A: 760 ± 43

Q: What does the source list for thrombin?
A: Expected % CD62P positive [7]: >95%; expression level of CD63 on platelets after stimulation ([8]; five minute stimulation with thrombin): greatly increased; Observed CD63 positive platelets [8, 12]: 142,000 ± 40,000 platelets/μl; % of total platelets expressing CD63 ([8]; thrombin activation (5 U/ml, 5 minute), CTAD whole blood): 72 ± 8.2%; Expected % CD63 positive [9]: >80%; Observed CD62P positive platelets [1, 12]: 192,000 ± 53,000 platelets/μl
